Measured values from PubChem BioAssay (NCI).
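Method: 48-hour compound exposure of cells in 96-well plates, five concentrations, linear interpolation of endpoints. GI50: concentration for 50% inhibition of growth. Definition used: TGI = concentration required for complete inhibition of growth.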

Key:
Test in all cases: DTP human tumour cell line panel, 48 h
[1] = tested on: LOX IMVI melanoma
[2] = tested on: HL-60(TB) leukemia
[3] = tested on: MCF7 breast
[4] = tested on: SF-268 CNS
[5] = tested on: NCI-H522 lung
[6] = tested on: SF-295 CNS
[7] = tested on: NCI/ADR-RES ovarian
[8] = tested on: SK-MEL-28 melanoma
[9] = tested on: OVCAR-5 ovarian
[10] = tested on: CCRF-CEM leukemia

Compound	GI50 [1] [µM]	TGI [1] [µM]	GI50 [2] [µM]	TGI [2] [µM]	GI50 [3] [µM]	TGI [3] [µM]	GI50 [4] [µM]	TGI [4] [µM]	GI50 [5] [µM]	TGI [5] [µM]	GI50 [6] [µM]	TGI [6] [µM]	GI50 [7] [µM]	TGI [7] [µM]	GI50 [8] [µM]	TGI [8] [µM]	GI50 [9] [µM]	TGI [9] [µM]	GI50 [10] [µM]	TGI [10] [µM]
Cc1cc(S(=O)(=O)Nc2nc3ccccc3[nH]2)c(SCc2ccccc2)cc1Cl	28.4	> 100	> 100	> 100	> 100	> 100	> 100	> 100	> 100	> 100	21.3	> 100	> 100	> 100	> 100	> 100	> 100	> 100	12.3	24.8
CN(C)CCCN1c2ccc(O)cc2Sc2ccc(Cl)cc21	–	20.2	–	30.8	–	26.5	–	21	–	25.3	–	29	–	30.1	–	24.7	–	30.8	–	22.2
CCCC(CCC)Oc1ccc(CCCC2=C(O)c3ccccc3C(=O)C2=O)cc1	3.34	10.5	2.68	6.27	4.32	15.2	5.22	18.9	5.75	22.2	2.1	10.4	5.36	22.5	10.1	21.7	11.8	25.8	2.9	17.1
OCc1ncc(-c2ccccc2)s1	> 100	> 100	> 100	> 100	> 100	> 100	> 100	> 100	> 100	> 100	> 100	> 100	> 100	> 100	> 100	> 100	> 100	> 100	> 100	> 100
Cc1[nH]c(=O)nc(N/N=C/c2ccc(Cl)cc2)c1C(=O)Nc1ccc(Cl)cc1	–	> 90.8	–	> 100	–	> 100	–	> 100	–	64.1	–	43.4	–	> 100	–	> 86.1	–	> 100	–	> 100
CCOc1ccc(NC(=O)c2cc3ccccc3cc2O)cc1	58.1	> 100	22.3	> 100	> 100	> 100	64.8	> 100	59.1	> 100	34.6	> 100	51.3	> 100	> 100	> 100	> 100	> 100	17.9	41.7
O=C(NCCNC(=O)c1ccc(F)cc1)Nc1ccc(-n2cc(-c3ccncc3)c(-c3ccc(Cl)c(O)c3)n2)cc1	0.425	2.49	0.273	0.848	0.323	> 100	0.427	7.33	0.306	2.94	0.354	1.7	> 100	> 100	1.38	> 100	1.03	9.82	0.336	> 100
NC(=S)N/N=C/c1ccc(OC(=O)COc2ccccc2)cn1	3.48	> 100	1.18	> 100	2.76	> 100	2.95	> 100	8.6	57.2	20.7	> 100	4.14	> 100	44.4	> 100	49.7	> 100	1.58	> 100
CC(C)c1ccc(/C=N/N=C(N)N)cc1	3.49	14.7	4.36	11.3	2.76	10.1	–	25.1	3.22	12.9	8.13	22.4	6.33	23.2	8.41	21	12.9	30.2	4.33	47.5
Cn1ccc2c3c(=O)cc[nH]c3ccc21	> 100	> 100	> 100	> 100	> 100	> 100	> 100	> 100	> 100	> 100	> 100	> 100	> 100	> 100	12.7	> 100	> 100	> 100	> 100	> 100
CC(=O)OC1CC2(O)C(CCC3(C)C(c4ccc(=O)oc4)CCC32O)C2(C)CCC(OC3OC(CO)C(O)C(O)C3O)C=C12 (centres undefined)	0.0275	0.109	0.0232	0.0579	0.0183	0.167	0.0112	0.04	< 0.01	0.148	0.0302	0.168	0.0172	0.0541	0.049	0.231	0.044	0.168	< 0.01	0.115
COc1ccc(Nc2ncc(-c3ccccc3)o2)cc1OC	11.6	> 25	10.9	> 19	> 25	> 25	> 17.2	> 25	9.33	> 25	> 24.2	> 25	> 22	> 25	> 25	> 25	> 25	> 25	13.9	> 25
CC(=O)[O][Hg][CH2]C1(C)COC(C)([CH2][Hg][O]C(C)=O)CO1 (centres undefined)	1.21	2.67	2.89	5.94	0.646	2.32	4.73	9.17	12.1	33	3.62	8.44	19.1	46	1.64	3.06	> 49.2	> 63.8	0.306	1.72
